Test results from paper PMC12384515 (2023).

Columns and labels:
Assay in all cases: fluorescent intercalator displacement
Conditions in all cases: ethidium bromide (5 μM) displaced; DNA 10 μM/bp; per base
[1] = tested on: G5C5 (DNA, duplex) AAAGGGGGCCCCCTTT
[2] = tested on: (AT)5 (DNA, duplex) GGGATATATATATCCC
[3] = tested on: A5T5 (DNA, duplex) GGGAAAAATTTTTCCC

Row | C50 [1] [µM] | C50 [2] [µM] | C50 [3] [µM] | Compound
1 | 7.21 ± 0.63 | 2.30 ± 0.03 | 2.40 ± 0.02 | CC1=CC(=[N+](C)C)C=CC1=C(c1ccc(N(C)C)cc1C)c1ccc(N(C)C)cc1C
2 | 3.36 ± 0.07 | – | 3.13 ± 0.01 | CN(C)c1ccc([C+](c2ccc(N(C)C)c(-c3ccccc3)c2)c2ccc(N(C)C)c(-c3ccccc3)c2)cc1-c1ccccc1
3 | – | 2.75 ± 0.21 | – | CN(C)c1ccc([C+](c2ccc(N(C)C)cc2)c2ccc(N(C)C)c(-c3ccccc3)c2)cc1
4 | 0.88 ± 0.01 | 0.32 ± 0.02 | 0.52 ± 0.01 | CN(C)c1ccc([C+](c2ccc(N(C)C)cc2)c2ccc3cc(N(C)C)ccc3c2)cc1
